Measured values as given in patent publication US7259159B2, “Guanidino derivatives as inhibitors of cell adhesion” (Sanofi-Aventis Deutschland GmbH, priority 2000, dated 2007).
Where two headings read alike, the source gives them in different places.

Molecular target: T1, human vitronectin receptor αvβ3 (Homo sapiens, UniProt P05106+P06756)
T1 construct: Human vitronectin receptor was obtained from the human placenta according to the method of Pytela et al; from tissue; host or cells: human placenta
T1 sequence (P06756 31-889 limits assumed): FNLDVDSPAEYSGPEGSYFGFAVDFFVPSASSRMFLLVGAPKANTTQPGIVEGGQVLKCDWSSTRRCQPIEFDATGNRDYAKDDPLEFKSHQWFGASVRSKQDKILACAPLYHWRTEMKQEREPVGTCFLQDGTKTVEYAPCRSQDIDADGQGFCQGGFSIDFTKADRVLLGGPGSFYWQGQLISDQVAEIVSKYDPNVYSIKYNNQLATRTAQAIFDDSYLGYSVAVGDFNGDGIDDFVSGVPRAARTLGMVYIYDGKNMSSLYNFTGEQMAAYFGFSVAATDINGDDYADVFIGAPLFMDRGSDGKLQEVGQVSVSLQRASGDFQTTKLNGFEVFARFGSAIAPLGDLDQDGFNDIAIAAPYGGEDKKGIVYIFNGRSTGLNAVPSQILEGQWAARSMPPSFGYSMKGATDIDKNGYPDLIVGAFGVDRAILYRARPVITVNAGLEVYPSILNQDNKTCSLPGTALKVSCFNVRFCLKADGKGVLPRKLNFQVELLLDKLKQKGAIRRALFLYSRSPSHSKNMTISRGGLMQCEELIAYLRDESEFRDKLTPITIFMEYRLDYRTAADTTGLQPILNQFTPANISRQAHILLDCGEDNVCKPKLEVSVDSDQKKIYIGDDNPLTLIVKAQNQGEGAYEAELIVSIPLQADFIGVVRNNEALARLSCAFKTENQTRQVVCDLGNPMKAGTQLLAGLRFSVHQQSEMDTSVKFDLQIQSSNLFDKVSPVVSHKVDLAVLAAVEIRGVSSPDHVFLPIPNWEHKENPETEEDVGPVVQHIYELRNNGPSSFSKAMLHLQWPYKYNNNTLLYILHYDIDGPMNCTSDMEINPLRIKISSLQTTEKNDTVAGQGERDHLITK
T1 sequence (P06756 891-1048 partner limits assumed): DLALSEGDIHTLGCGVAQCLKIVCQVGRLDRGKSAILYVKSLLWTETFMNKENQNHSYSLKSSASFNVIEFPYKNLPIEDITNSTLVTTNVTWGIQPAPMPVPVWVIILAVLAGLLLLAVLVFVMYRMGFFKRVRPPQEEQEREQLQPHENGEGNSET
T1 sequence (P05106 27-788): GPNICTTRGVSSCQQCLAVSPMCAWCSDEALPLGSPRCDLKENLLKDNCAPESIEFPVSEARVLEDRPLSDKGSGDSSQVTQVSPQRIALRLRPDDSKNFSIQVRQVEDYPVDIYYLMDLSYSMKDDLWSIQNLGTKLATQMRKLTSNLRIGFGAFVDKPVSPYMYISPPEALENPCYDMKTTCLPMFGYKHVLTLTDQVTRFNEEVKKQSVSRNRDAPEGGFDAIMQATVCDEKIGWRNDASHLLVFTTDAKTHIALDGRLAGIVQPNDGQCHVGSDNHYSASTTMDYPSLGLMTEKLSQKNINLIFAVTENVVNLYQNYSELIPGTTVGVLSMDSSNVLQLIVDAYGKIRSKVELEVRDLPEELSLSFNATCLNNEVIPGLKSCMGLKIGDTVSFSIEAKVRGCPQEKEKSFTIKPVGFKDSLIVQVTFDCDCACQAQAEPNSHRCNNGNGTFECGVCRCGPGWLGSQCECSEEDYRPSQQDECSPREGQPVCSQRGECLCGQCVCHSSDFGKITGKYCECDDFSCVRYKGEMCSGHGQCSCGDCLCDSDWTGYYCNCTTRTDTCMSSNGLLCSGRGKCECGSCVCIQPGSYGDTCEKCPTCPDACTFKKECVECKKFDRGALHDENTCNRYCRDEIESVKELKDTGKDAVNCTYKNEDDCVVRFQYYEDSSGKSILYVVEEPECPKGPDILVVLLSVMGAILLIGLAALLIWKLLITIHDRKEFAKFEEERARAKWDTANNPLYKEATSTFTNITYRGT
Test: Kistrin binding assay (αvβ3 ELISA test, K/VnR)
Source text: The inhibition of the binding of kistrin to human vitronectin receptor (VnR) described below is a test method by which the antagonistic action of the compounds of the invention on the vitronectin receptor αvβ3 can be determined (αvβ3 ELISA Test; the test method is abbreviated as “K/VnR” in the listing of the test results).
Kistrin was purified according to the methods of Dennis et al., as described in Proc. Natl. Acad. Sci. USA 87 (1989) 2471 and Proteins: Structure, Function and Genetics 15 (1993)312.
Purification of Human vitronectin Receptor (αvβ3)
Human vitronectin receptor was obtained from the human placenta according to the method of Pytela et al., Methods Enzymol. 144 (1987) 475. Human vitronectin receptor αvβ3 can also be obtained from some cell lines (for example from 293 cells, a human embryonic kidney cell line) which are co-transfected with DNA sequences for both subunits αv and β3 of the vitronectin receptor. The subunits are extracted with octyl glycoside and then chromatographed through concanavalin A, heparin-Sepharose and S-300.
Murine monoclonal antibodies which are specific for the β3 subunits of the vitronectin receptor, were prepared according to the method of Newman et al., Blood, 1985, 227, or by a similar process. The rabbit Fab 2 anti-mouse Fc conjugate to horseradish peroxidase (anti-mouse Fc HRP) was obtained from Pel Freeze (Catalog No. 715 305-1).
The ability of substances to inhibit the binding of kistrin to the vitronectin receptor can be determined using an ELISA test. For this purpose, Nunc 96-well microtiter plates were coated with a solution of kistrin (0.002 mg/ml) according to the method of Dennis et al., as described in Proteins: Structure, Function and Genetics 15 (1993) 312. The plates were then washed twice with PBS/0.05% Tween-20 and blocked by incubating (60 min) with bovine serum albumin (BSA, 0.5%, RIA grade or better) in buffer solution (Tris-HCl (50 mM), NaCl (100 mM), MgCl2 (1 mM), CaCl2 (1 mM), MnCl2 (1 mM), pH 7). Solutions of known inhibitors and of the test substances were prepared in concentrations from 2×10^−12 to 2×10^−6 mol/l in assay buffer (BSA (0.5%, RIA grade or better); Tris-HCl (50 mM), NaCl (100 mM), MgCl2 (1 mM), CaCl2 (1 mM), MnCl2 (1 mM), pH 7). The blocked plates were emptied, and in each case 0.025 ml of this solution which contains a defined concentration (2×10^−12 to 2×10^−6 mol/l) either of a known inhibitor or of a test substance, were added to each well. 0.025 ml of a solution of the vitronectin receptor in assay buffer (0.03 mg/ml) was pipetted into each well of the plate and the plate was incubated at room temperature for 60-180 min on a shaker. In the meantime, a solution (6 ml/plate) of a murine monoclonal antibody specific for the […] of the vitronectin receptor was prepared in assay buffer (0.0015 mg/ml). A second rabbit antibody (0.001 ml of stock solution/6 ml of the murine monoclonal anti-β3 antibody solution) which is an anti-mouse Fc HRP antibody conjugate was added to this solution, and this mixture of murine anti-β3 antibody and rabbit anti-mouse Fc HRP antibody conjugate was incubated during the time of the receptor-inhibitor incubation. The test plates were washed four times with PBS solution which contains 0.05% Tween-20, and in each case 0.05 ml/well of the antibody mixture was pipefted into each well of the plate and incubated for 60-180 min. The plate was washed four times with PBS/0.05% Tween-20 and then developed with 0.05 ml/well of a PBS solution which contained 0.67 mg/ml of ophenylenediamine and 0.012% of H2O2. Alternatively to this, o-phenylenediamine can be employed in a buffer (pH 5) which contains Na3PO4 and citric acid. The color development was stopped using 1 N H2SO4 (0.05 ml/well). The absorption for each well was measured at 492-405 nm and the data are evaluated by standard methods.

[1] = inhibition of the binding of kistrin to human vitronectin receptor (VnR), ELISA, read-out: K/VnR IC50

IC50 [1]	SMILES	IC50
22 nM	O=C(CCCn1cnc2c(NC[C@H](NC(=O)OCc3ccccc3)C(=O)O)ncnc21)NC1=NCCCN1 [Example 1, (2S)-2-Benzyloxycarbonylamino-3-{9-[3-(1,4,5,6-tetrahydro-pyrimidin-2-ylcarbamoyl)-propyl]-9H-purin-6-ylamino}-propionic acid]	–
3.5 nM	Cc1nc(NC[C@H](NC(=O)OCc2ccccc2)C(=O)O)c2ccn(CCCC(=O)NC3=NCCCN3)c2n1 [Example 2, (2S)-2-Benzyloxycarbonylamino-3-{2-methyl-7-[3-(1,4,5,6-tetrahydro-pyrimidin-2-ylcarbamoyl)-propyl]-7H-pyrrolo[2,3-d]pyrimidin-4-ylamino}-propionic acid]	–
–	Cc1nc(NC[C@H](NS(=O)(=O)c2cccc3ccccc23)C(=O)O)c2ccn(CCCC(=O)NC3=NCCCN3)c2n1 [Example 3, (2S)-3-{2-Methyl-7-[3-(1,4,5,6-tetrahydro-pyrimidin-2-ylcarbamoyl)-propyl]-7H-pyrrolo[2,3-d]pyrimidin-4-ylamino}-2-(naphthalene-1-sulfonylamino)-propionic acid]	2.2 nM
3 nM	Cc1nc(NC[C@H](NS(=O)(=O)c2ccccc2)C(=O)O)c2ccn(CCCC(=O)NC3=NCCCN3)c2n1 [Example 4, (2S)-3-{2-Methyl-7-[3-(1,4,5,6-tetrahydro-pyrimidin-2-ylcarbamoyl)-propyl]-7H-pyrrolo[2,3-d]pyrimidin-4-ylamino}-2-(benzenesulfonylamino)-propionic acid]	–
2.6 nM	Cc1nc(NC[C@H](NS(=O)(=O)c2ccc(Br)cc2)C(=O)O)c2ccn(CCCC(=O)NC3=NCCCN3)c2n1 [Example 5, (2S)-3-{2-Methyl-7-[3-(1,4,5,6-tetrahydro-pyrimidin-2-ylcarbamoyl)-propyl]-7H-pyrrolo[2,3-d]pyrimidin-4-ylamino}-2-(4-bromobenzenesulfonylamino)-propionic acid]	–
13.5 nM	Cc1nc(SC[C@H](NS(=O)(=O)c2ccc(Br)cc2)C(=O)O)c2ccn(CCCC(=O)NC3=NCCCN3)c2n1 [Example 6, (2R)-3-{2-Methyl-7-[3-(1,4,5,6-tetrahydro-pyrimidin-2-ylcarbamoyl)-propyl]-7H-pyrrolo[2,3-d]pyrimidin-4-ylsulfanyl}-2-(4-bromobenzenesulfonylamino)-propionic acid]	–
5 nM	Cc1nc(SC[C@H](NS(=O)(=O)c2cccc3ccccc23)C(=O)O)c2ccn(CCCC(=O)NC3=NCCCN3)c2n1 [Example 7, (2R)-3-{2-Methyl-7-[3-(1,4,5,6-tetrahydro-pyrimidin-2-ylcarbamoyl)-propyl]-7H-pyrrolo[2,3-d]pyrimidin-4-ylsulfanyl}-2-(naphthalene-1-sulfonylamino)-propionic acid]	–
10 nM	Cc1nc(SC[C@H](NS(=O)(=O)c2ccccc2)C(=O)O)c2ccn(CCCC(=O)NC3=NCCCN3)c2n1 [Example 8, (2R)-3-{2-Methyl-7-[3-(1,4,5,6-tetrahydro-pyrimidin-2-ylcarbamoyl)-propyl]-7H-pyrrolo[2,3-d]pyrimidin-4-ylsulfanyl}-2-(benzenesulfonylamino)-propionic acid]	–
